Counter-ions that a name gives are not always drawn. A value given as a limit tells only on which side of the number the result lay.

Assay type in all cases: physicochemical
A short description of series [1]: Variable Humidity X-Ray Powder Diffraction (VH-XRPD). The arrangement: key to VH-XRPD XRPD Results: A = amorphous; 1 = Form 1 Compound 1 hydrogen chloride; PC = poorly crystalline. On the procedure:
In the examples below, VH-XRPD analysis was carried out on a Philips X'Pert Pro Multipurpose diffractometer equipped with a humidity chamber. The samples were scanned between 4 and 36° 2θ using Cu K radiation (α1λ=1.54060 Å; α2=1.54443 Å; β=1.39225 Å; α1: α2 ratio=0.5; most, if not all, B radiation is removed from the beam using an X-ray mirror) running in Bragg-Brentano geometry (step size 0.008° 2θ) using 40 kV/40 mA generator settings. Measurements were carried out from 2-90% RH, with a final measurement taken at 40% RH.
VH-XRPD analysis was carried out on a Philips X'Pert Pro Multipurpose diffractometer equipped with a humidity chamber. The samples were scanned between 4 and 36° 2θ using Cu K radiation (α1 λ=1.54060 Å; α2=1.54443 Å; β=1.39225 Å; α1:α2 ratio=0.5; most, if not all, β radiation is removed from the beam using an X-ray mirror) running in Bragg-Brentano geometry (step size 0.008° 2θ) using 40 kV/40 mA generator settings. Measurements were carried out from 6-90% relative humidity (RH), with a final measurement taken at 40% RH.

A short description of series [2]: Dynamic Vapor Sorption (DVS). As for the experimental part:
(§1) METHOD A: In Example 11, approximately 5-15 mg of sample was placed into a mesh vapor sorption balance pan and loaded into either a DVS Intrinsic or DVS Advantage dynamic vapor sorption balance by Surface Measurement Systems. The sample was subjected to a ramping profile from 40-90% relative humidity (RH) at 10% increments, maintaining the sample at each step until a stable weight had been achieved (dm/dt 0.004%, minimum step length 30 minutes, maximum step length 500 minutes) at 25° C. After completion of the sorption cycle, the sample was dried using the same procedure to 0% RH and then a second sorption cycle back to 40% RH was carried out. Two cycles were performed. The weight change during the sorption/desorption cycles were plotted, allowing the hygroscopic nature of the sample to be determined. XRPD analysis was then carried out on the residual solid.
as §1, with “B:” for “A:”, “Examples 2A, 3, 14, and 17,” for “Example 11,”, “10-20” for “5-15”, “determined.” for “determined. XRPD analysis was then carried out on the residual solid.”
as §1, with “Approximately 10-20” for “METHOD A: In Example 11, approximately 5-15”, “RH” for “relative humidity (RH)”, “min,” for “minutes,”, “min)” for “minutes)”, “determined.” for “determined. XRPD analysis was then carried out on the residual solid.”

Series [3] in a line: salt screen, XRPD of damp, dried and 40° C./75% RH stored samples (Salt Preparation Methods 1 and 2). Details: key: A: amorphous; Crystalline Form 10 mono(hydrogen sulfate). Particulars: Sulfuric Acid, 1 equiv. As for the experimental part: (§2) Salt Preparation Method 1: Approximately 25 mg of Compound 1 (free base) was weighed out into 1.5 mL screw-cap vials and a stirrer bar was added. For solid counterions, the appropriate amount of acid (1.0 or 2.0 equiv.) was weighed into separate 1.5 mL screw-cap vials. 100 μL of the appropriate solvent system was added to both the Compound 1 and the solid counterions. Stock solutions of liquid counterions were prepared, such that 100 μL contained 1.0 or 2.0 equiv. of acid. See counterion and solvent lists in Table 60 and Table 61 respectively.
(§3) The samples were stirred at 40° C. for 5-10 min and then the acid solutions were added to Compound 1, rinsing out the transfer vial with a further 50 μL of solvent. […] Experiments were temperature cycled between 40° C. and 5° C. (1 h hold; 0.1° C./min ramp/cool) for ca. 24-68 h. Anti-solvent addition (ASA) was carried out to slurries at 5° C. then experiments were heated to 30° C. over 1 h. ASA was carried out at 30° C. or 40° C. where clear solutions or gums were observed.
(§4) Temperature cycling was then continued for ca. 16-69 h, followed by further ASA and temperature cycling if required. Material was isolated at 5° C. and analyzed damp by XRPD. All isolated material was dried under vacuum at ca. 40° C. for ca. 17-91 h then re-analyzed by XRPD. The XRPD plate was stored at 40° C./75% RH for 24-48 h and then samples re-analyzed. Solutions were stored uncapped at ambient temperature to evaporate. Any residual solids were analyzed by XRPD.
(§5) Salt Preparation Method 2: The general procedure adopted in preparing the potential salts is outlined below. A known mass of Compound 1 (free base) and a known volume of the appropriate solvent system were added to 20 mL scintillation vials. The required mol. equiv. of the appropriate counterions were added to the vials as solutions or slurries in the corresponding solvent system.
(§6) The experiments were stirred at 40° C. for ca. 1 h, and then temperature cycled between 40° C. and 5° C. with 0.1° C./min ramp and 1 h hold between each step. Anti-solvent additions and subsequent slurrying at 5° C. were employed in order to facilitate crystallization. […] The damp and dried solids were subsampled and analyzed by XRPD. Where applicable, the dried solids were stored at 40° C./75% RH for 24-48 h in order to improve the crystallinity and/or facilitate solid form conversion to the desired form.

Assay in series [4]: as above
The following applies: p-Toluenesulfonic acid, 2 equiv. Details: key: A = amorphous; Evap. = isolated via evaporation. As for the experimental part: as §2, §3, §4, §5, §6

Assay in series [5]: as above
Details: key to XRPD Analysis Damp/Dry: A = amorphous; Evap. = isolated via evaporation. The following applies: p-Toluenesulfonic acid, 2 equiv.; IPA:H2O (75:25% v/v); AS tBME; (evap.). On the procedure:
as §2, §3, §4, §5, §6

As for `COc1cc(C(=O)O[C@@H]2CCCOc3cc(cc(OC)c3OC)C(=O)NCCCN3CCCN(CC2)CC3)cc(OC)c1OC.Cl.Cl`, the “relative humidity range in which the form is retained (VH-XRPD)” value in series [1] is recorded as 7-80 % RH. Further, the “VH-XRPD XRPD Results” value is given as 1 in series [1] (Desorption (1st), 7% RH, hold 60 min); 1 in series [1] (Desorption (1st), 10% RH, hold 60 min); 1 in series [1] (Desorption (1st), 20% RH, hold 960 min); 1 in series [1] (Desorption (1st), 40% RH, hold 60 min); 1 in series [1] (Desorption (2nd), 40% RH, hold 60 min); 1 in series [1] (Desorption (2nd), 60% RH, hold 60 min). The “VH-XRPD XRPD Results” value in series [1] (Sorption, 10% RH, hold 60 min) turned out to be 1; in series [1] (Sorption, 20% RH, hold 60 min), 1; in series [1] (Sorption, 40% RH, hold 60 min), 1; in series [1] (Sorption, 60% RH, hold 60 min), 1; in series [1] (Sorption, 70% RH, hold 60 min), 1; in series [1] (Sorption, 80% RH, hold 60 min) it was 1. For the same compound, in series [2] (25° C.), the hygroscopicity entry is given as “moderate-high hygroscopicity”. The “hysteresis between the sorption and desorption cycles (DVS)” value in series [2] (25° C. (fumarate: at 20% RH)) was “ca. 1.3%”. Moreover, the “post-DVS sample (XRPD / appearance)” value in series [2] (DVS at 25° C.) is “gum-like material”. Also, the “moisture uptake (DVS)” value is 18% in series [2] (between 0-80% RH, second sorption cycle, 25° C.); “ca. 5%” in series [2] (between 40-80% RH, first sorption cycle, 25° C.); 9% in series [2] (between 80-90% RH, 25° C.).

Regarding `COc1cc(C(=O)O[C@@H]2CCCOc3cc(cc(OC)c3OC)C(=O)NCCCN3CCCN(CC2)CC3)cc(OC)c1OC` [Compound 1 mono(hydrogen sulfate)], the “XRPD Analysis 40° C. 75% RH” value is given as “A” in series [3] (Acetonitrile, AS tBME); “A” in series [3] (Ethanol, AS Heptane); “A” in series [3] (Ethyl acetate, AS Heptane); 10 in series [3] (IPA:H2O (75:25% v/v), AS tBME); 10 in series [3] (MEK, AS Heptane); “A” in series [3] (THF, AS Heptane). In addition, the “XRPD Analysis Damp” value is “A” in series [3] (Acetonitrile, AS tBME); “A” in series [3] (Ethanol, AS Heptane); “A” in series [3] (Ethyl acetate, AS Heptane); “A” in series [3] (IPA:H2O (75:25% v/v), AS tBME); “A” in series [3] (MEK, AS Heptane); “A” in series [3] (THF, AS Heptane). In addition, the “XRPD Analysis Dry” value is “A” in series [3] (Acetonitrile, AS tBME); “A” in series [3] (Ethanol, AS Heptane); “A” in series [3] (Ethyl acetate, AS Heptane); “A” in series [3] (IPA:H2O (75:25% v/v), AS tBME); “A” in series [3] (MEK, AS Heptane); “A” in series [3] (THF, AS Heptane).

With `COc1cc(C(=O)O[C@@H]2CCCOc3cc(cc(OC)c3OC)C(=O)NCCCN3CCCN(CC2)CC3)cc(OC)c1OC.O=S(=O)(O)O.O=S(=O)(O)O` [crystalline Form 5 Compound 1 di(hydrogen sulfate)], the “relative humidity at which conversion to crystalline Form 2 Compound 1 di(hydrogen sulfate) trihydrate is observed” value in series [1] (Form 3: after extended exposure) was at least 10 % RH.

As for `Cc1ccc(S(=O)(=O)O)cc1` [p-Toluenesulfonic acid, 2 equiv.], the “XRPD Analysis 40° C. 75% RH” value in series [4] (Acetonitrile, AS tBME) was “A”; in series [4] (Ethanol, AS Heptane), “A”; in series [4] (Ethyl acetate, AS Heptane), “A”; in series [4] (IPA:H2O (75:25% v/v), AS tBME), “A”; in series [4] (MEK, AS Heptane), “A”; in series [4] (THF, AS Heptane), “A”. For the same compound, the “XRPD Analysis Damp” value in series [4] (Acetonitrile, AS tBME) is listed as “A”; in series [4] (Ethanol, AS Heptane), “A”; in series [4] (Ethyl acetate, AS Heptane), “A”; in series [4] (MEK, AS Heptane), “A”; in series [4] (THF, AS Heptane), “A”. For the same compound, the “XRPD Analysis Dry” value in series [4] (Acetonitrile, AS tBME) is listed as “A”; in series [4] (Ethanol, AS Heptane), “A”; in series [4] (Ethyl acetate, AS Heptane), “A”; in series [4] (MEK, AS Heptane), “A”; in series [4] (THF, AS Heptane) it was “A”. In series [5], the “XRPD Analysis Damp/Dry” value is recorded as “A (evap.)”.

Source of the values: patent publication US20240327415A1, “Multicomponent Complexes, Including Salts, Crystalline Forms, and Hydrates and Solvates of ENT1 Inhibitors” (iTeos Belgium SA, priority 2023, published 2024).
